Measurements as given in EP0719251B1, “BICYCLO (2.2.2) OCTANE DERIVATIVES CHOLECYSTOKININ AND/OR GASTRIN ANTAGONISTS” (JAMES BLACK FOUNDATION LIMITED, priority 1993, dated 1995).

What was measured:
CCKB receptor = target: T1, CCKB receptor (Mus musculus, UniProt P56481); experiment: radioligand binding assay at the CCKB receptor in mouse cortical membranes; conditions: [125I]-CCK8S 200pM, 150 min at 21 ± 3°C, read-out: CCKB pKi (converted)
T1 construct: The whole brains from male mice (CD1 22-25g; Charles River) were removed; from tissue; host or cells: cerebral cortex membranes of male CD1 mice
T1 sequence (P56481 1-453): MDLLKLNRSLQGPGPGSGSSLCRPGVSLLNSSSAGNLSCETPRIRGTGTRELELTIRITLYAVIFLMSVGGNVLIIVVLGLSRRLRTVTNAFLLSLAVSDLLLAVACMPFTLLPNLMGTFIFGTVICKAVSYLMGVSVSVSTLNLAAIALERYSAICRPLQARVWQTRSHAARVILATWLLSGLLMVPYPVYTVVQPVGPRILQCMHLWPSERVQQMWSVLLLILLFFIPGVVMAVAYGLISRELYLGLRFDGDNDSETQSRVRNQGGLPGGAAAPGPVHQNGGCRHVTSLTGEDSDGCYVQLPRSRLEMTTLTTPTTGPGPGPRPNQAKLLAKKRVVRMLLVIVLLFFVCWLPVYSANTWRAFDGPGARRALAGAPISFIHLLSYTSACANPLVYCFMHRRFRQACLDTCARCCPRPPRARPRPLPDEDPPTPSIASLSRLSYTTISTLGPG
Protocol: The compounds of the examples were tested for binding at the CCKB receptor in mouse cortical membranes by means of a radioligand binding assay. The procedure was as follows:
The whole brains from male mice (CD1 22-25g; Charles River) were removed and placed in ice-cold buffer (pH7.2 @ 21 ± 3°C) of the following composition (mM); 10 HEPES, 130 NaCl, 4.7 KCl, 5 MgCl2, 1 EDTA and containing 0.25g.l^-1 bacitracin. The cortex was dissected, weighed and homogenised in 40ml ice-cold buffer using a Teflon-in-glass homogeniser. The homogenate was centrifuged at 39,800g for 20 min at 4°C, the supernatant discarded and the pellet resuspended by homogenisation in fresh buffer. The homogenate was recentrifuged (39,800g; 20 min @ 4°C) and the final pellet was resuspended in HEPES buffer to give a tissue concentration of 2mg.ml^-1(original wet weight).
The assay was terminated by rapid filtration through pre-soaked Whatman GF/B filters using a Brandell Cell harvester. The filters were washed (3 x 3ml) with ice-cold 50mM Tris-HCl (pH7.4 @ 4°C) and bound radioactivity determined by counting (1 min.) in a gamma-counter.

gastrin = target: T2, gastrin (Rattus norvegicus, UniProt P30553); experiment: gastrin antagonist activity in an immature rat stomach assay; conditions: isolated immature rat stomach, cumulative pentagastrin dose-response curves, acid secretion; for Kb: read-out: Gastrin pKB (converted)
T2 construct: The stomach was excised and flushed with ca. 1 ml of unbuffered physiological saline solution; from tissue; host or cells: isolated whole stomach of immature rats (33-50 g, ca. 21 days old)
T2 sequence (P30553 1-452): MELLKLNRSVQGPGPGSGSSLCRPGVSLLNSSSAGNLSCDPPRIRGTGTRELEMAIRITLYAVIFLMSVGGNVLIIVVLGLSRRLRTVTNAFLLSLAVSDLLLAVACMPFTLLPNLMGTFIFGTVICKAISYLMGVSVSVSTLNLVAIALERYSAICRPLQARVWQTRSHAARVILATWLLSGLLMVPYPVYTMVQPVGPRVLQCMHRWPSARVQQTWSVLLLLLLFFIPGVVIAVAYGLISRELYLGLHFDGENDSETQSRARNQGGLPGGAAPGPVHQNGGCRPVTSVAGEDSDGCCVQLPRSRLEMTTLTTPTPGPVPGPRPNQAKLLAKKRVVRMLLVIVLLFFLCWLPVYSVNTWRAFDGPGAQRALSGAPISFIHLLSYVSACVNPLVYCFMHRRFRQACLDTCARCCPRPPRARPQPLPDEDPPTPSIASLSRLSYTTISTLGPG
Protocol: The compounds of the examples were also tested for gastrin antagonist activity in an immature rat stomach assay. The procedure was as follows: The oesophagus of immature rats (33-50 g, ca. 21 days old) was ligated at the level of the cardiac sphincter and the duodenal sphincter was cannulated. The stomach was excised and flushed with ca. 1 ml of unbuffered physiological saline solution. The fundus was punctured and cannulated. A further 4-5 ml of unbuffered solution was flushed through the stomach to ensure the preparation was not leaking. […] The stomach was continuously perfused at a rate of 1 ml min^-1 with unbuffered solution gassed with 100% O2 with the perfusate passing over an internally referenced pH-electrode fixed 12 cm above the stomach. After 120 min of stabilisation the drugs were added directly to the serosal solution in the organ bath and after a further 60 min cumulative pentagastrin dose-response curves were started.

CCKA = target: T3, CCKA (Cavia porcellus, UniProt Q63931); experiment: CCKA binding assay in guinea-pig pancreas membranes; conditions: [125I]-CCK8(S) 200pM; for Ki: containing 0.375 µM PD134,308, read-out: CCKA pKi (converted)
T3 construct: The pancreatata were removed from male guinea-pigs (200-300g; Dunkin Hartley); from tissue; host or cells: pancreas membranes of male Dunkin Hartley guinea-pigs
T3 sequence (Q63931 1-430): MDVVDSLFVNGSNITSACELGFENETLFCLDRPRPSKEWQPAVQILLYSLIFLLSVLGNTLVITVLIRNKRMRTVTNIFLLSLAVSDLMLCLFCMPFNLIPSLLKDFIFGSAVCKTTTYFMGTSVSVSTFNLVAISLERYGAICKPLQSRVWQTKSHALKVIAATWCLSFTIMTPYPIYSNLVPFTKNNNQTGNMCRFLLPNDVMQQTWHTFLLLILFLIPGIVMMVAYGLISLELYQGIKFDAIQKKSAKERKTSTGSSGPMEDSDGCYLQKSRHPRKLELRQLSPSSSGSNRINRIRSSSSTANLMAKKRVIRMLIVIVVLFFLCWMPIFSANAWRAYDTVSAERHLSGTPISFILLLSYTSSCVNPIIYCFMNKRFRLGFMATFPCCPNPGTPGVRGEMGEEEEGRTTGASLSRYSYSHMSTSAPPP
Protocol: The compounds of the examples were also tested in a CCKÅ binding assay as follows:
The pancreatata were removed from male guinea-pigs (200-300g; Dunkin Hartley) and placed in ice-cold HEPES buffer (pH 7.2 @ 21 ± 3° ). The pancreatata were homogenised in 40 ml ice-cold HEPES buffer using a polytron (Brinkmann, PT10, setting 10) 4 x 1 second.
The homogenate was centrifuged at 39,800g for 15 min at 4°. The supernatant was discarded and the pellet re-suspended using a Teflon-in-glass homogeniser in 20 volumes of fresh buffer and recentrifuged as above. The final pellet was re-suspended using a Teflon-in-glass homogeniser to a tissue concentration of 1 mg.ml^-1 (original wet weight), and filtered through 500 µm pore-size Nytex mesh.
The membranes (400µl; containing 0.375 µM PD134,308) are incubated for 150 minutes at 21 ± 3° in a final volume of 0.5ml with HEPES buffer containing [^125I]-CCK8(S) (50µl; 200pM) and competing compound. Total and non-specific binding of [^125I]-CCK8 (S) are defined using 50µl of buffer and 50µl of 100nM L-364,718 respectively. The assay is terminated by rapid filtration through pre-soaked Whatman GF/B filters using a Brandell Cell Harvester. The filters were washed (3 x 3ml) with ice-cold 50mM Tris HCl (pH 7.4 at 4° ) and bound radioactivity is determined by counting (1 min) in a gamma counter.

Ki (CCKB receptor) [µM] | Kb (gastrin) [µM] | Ki (CCKA) [µM] | Gastrin pKB (gastrin; 60 min) | CCKA pKi (CCKA; containing 0.375 µM PD134,308) | Structure (SMILES)
0.0501 | 0.02 | 0.398 |  |  | O=C(O)c1cc(NC(=O)[C@H](Cc2ccc(F)cc2)NC(=O)C2C3c4ccccc4C(c4ccccc43)C2C(=O)NCC23CC4CC(CC(C4)C2)C3)cc(C(=O)O)c1 (single isomer, unassigned) [Example 9, cis-7-(1S-(3,5-dicarboxyphenylaminocarbonyl) -2-(4-fluorophenyl)ethylaminocarbonyl)-8-(1-adamantanemethylaminocarbonyl) -2,3,5,6-dibenzobicyclo[2.2.2]octane]
0.501 | 0.316 | 2 |  |  | COc1ccc(C[C@H](NC(=O)C2C3c4ccccc4C(c4ccccc43)C2C(=O)NCC23CC4CC(CC(C4)C2)C3)C(=O)Nc2cc(C(=O)O)cc(C(=O)O)c2)cc1 (single isomer, unassigned) [Example 13, cis-7-(1S-(3,5-dicarboxyphenylaminocarbonyl) -2-(4-methoxyphenyl)ethylaminocarbonyl)-8-(1-adamantanemethylaminocarbonyl) -2,3,5,6-dibenzobicyclo[2.2.2]octane]
0.01 | 0.126 | 2.51 |  |  | O=C(O)c1cc(NC(=O)[C@@H](Cc2ccccc2)NC(=O)C2C3c4ccccc4C(c4ccccc43)C2C(=O)NCC23CC4CC(CC(C4)C2)C3)cc(C(=O)O)c1 (single isomer, unassigned) [Example 3, cis-7-(1R-(3,5-dicarboxyphenylaminocarbonyl) -2-phenylethylaminocarbonyl)-8-(1-adamantanemethylaminocarbonyl) -2,3,5,6-dibenzobicyclo[2.2.2]octane]
0.0158 | 0.0158 | 1.26 |  |  | O=C(O)c1cc(NC(=O)[C@@H](Cc2ccccc2)NC(=O)C2C3c4ccccc4C(c4ccccc43)C2C(=O)NCC23CC4CC(CC(C4)C2)C3)cc(C(=O)O)c1 (single isomer, unassigned) [Example 4, cis-7-(1R-(3,5-dicarboxyphenylaminocarbonyl)-2-phenylethylaminocarbonyl)-8-(1-adamantananethylaminocarbonyl) -2,3,5,6-dibenzobicyclo[2.2.2]octane]
0.01 | 0.00501 | 0.794 |  |  | O=C(O)c1cc(NC(=O)[C@H](Cc2ccc(Cl)cc2)NC(=O)C2C3c4ccccc4C(c4ccccc43)C2C(=O)NCC23CC4CC(CC(C4)C2)C3)cc(C(=O)O)c1 (single isomer, unassigned) [Example 10, cis-7-(1S-(3,5-dicarboxyphenylaminocarbonyl)-2-(4-chlorophenyl)-ethylaminocarbonyl)-8-(1-adamantanemethylaminocarbonyl) -2,3,5,6-dibenzobicyclo[2.2.2]octane]

Continued, molecule first:

Structure (SMILES) | Ki (CCKB receptor) [µM] | Kb (gastrin) [µM] | Ki (CCKA) [µM] | Gastrin pKB (gastrin; 60 min) | CCKA pKi (CCKA; containing 0.375 µM PD134,308)
O=C(O)c1cc(NC(=O)[C@H](Cc2ccccc2)NC(=O)C2C3c4ccccc4C(c4ccccc43)C2C(=O)NCC23CC4CC(CC(C4)C2)C3)cc(C(=O)O)c1 (single isomer, unassigned) [Example 1, cis-7-(1S-(3,5-dicarboxyphenylamino-carbonyl) -2-phenylethylaminocarbonyl)-8-(1-adamantanemethylamino-carbonyl) -2,3,5,6-dibenzobicyclo[2.2.2] octane] | 0.00158 | 0.00501 | 2 |  | 
O=C(O)c1cccc(NC(=O)[C@H](Cc2ccccc2)NC(=O)C2C3c4ccccc4C(c4ccccc43)C2C(=O)NCC23CC4CC(CC(C4)C2)C3)c1 (single isomer, unassigned) [Example 41, cis-7-(1S-(3-carboxyphenylaminocarbonyl)-2-phenylethylaminocarbonyl)-8-(1-adamantanemethylaminocarbonyl)-2,3,5,6-dibenzobicyclo[2.2.2]octane] | 0.158 |  |  | 5.7 | 6.0
O=C(O)c1cc(NC(=O)[C@H](Cc2ccccc2)NC(=O)C2C3c4ccccc4C(c4ccccc43)C2C(=O)NCc2ccc(Cl)c(Cl)c2)cc(C(=O)O)c1 (single isomer, unassigned) [Example 34, cis-7-(1S-(3,5-dicarboxyphenylaminocarbonyl) -2-phenylethylaminocarbonyl) -8-(3,4-dichlorophenyl-methylaminocarbonyl) -2,3,5,6-dibenzobicyclo[2.2.2]octane] | 0.0398 | 0.316 | 0.251 |  | 
O=C(O)c1cc(NC(=O)[C@H](Cc2cccs2)NC(=O)C2C3c4ccccc4C(c4ccccc43)C2C(=O)NCC23CC4CC(CC(C4)C2)C3)cc(C(=O)O)c1 (single isomer, unassigned) [Example 7, cis-7-(1S-(3,5-dicarboxyphenylaminocarbonyl) -2-(2-thiophenyl)ethylaminocarbonyl)-8-(1-adamantanemethylaminocarbonyl) -2,3,5,6-dibenzobicyclo[2.2.2]octane] | 0.0501 | 0.251 | 0.501 |  | 
O=C(O)c1cc(NC(=O)[C@H](CC2CCCCC2)NC(=O)C2C3c4ccccc4C(c4ccccc43)C2C(=O)NCC23CC4CC(CC(C4)C2)C3)cc(C(=O)O)c1 (stereo partly drawn) [Example 5, cis-7-(1S-(3,5-dicarboxyphenylaminocarbonyl) -2-cyclohexylethylaminocarbonyl)-8-(1-adamantanemethylaminocarbonyl) -2,3,5,6-dibenzobicyclo[2.2.2]octane] | 0.0251 | 0.316 | 1 |  | 
